# Measurements from patent US11773094B2, “Farnesoid X receptor agonists and uses thereof” (Metacrine, Inc., priority 2018, dated 2023).
# Target: T1, hFXR (Homo sapiens, UniProt Q96RI1)
# T1 construct: expressed in transfected cells; host or cells: CV-1 cells
# T1 sequence (Q96RI1 1-486): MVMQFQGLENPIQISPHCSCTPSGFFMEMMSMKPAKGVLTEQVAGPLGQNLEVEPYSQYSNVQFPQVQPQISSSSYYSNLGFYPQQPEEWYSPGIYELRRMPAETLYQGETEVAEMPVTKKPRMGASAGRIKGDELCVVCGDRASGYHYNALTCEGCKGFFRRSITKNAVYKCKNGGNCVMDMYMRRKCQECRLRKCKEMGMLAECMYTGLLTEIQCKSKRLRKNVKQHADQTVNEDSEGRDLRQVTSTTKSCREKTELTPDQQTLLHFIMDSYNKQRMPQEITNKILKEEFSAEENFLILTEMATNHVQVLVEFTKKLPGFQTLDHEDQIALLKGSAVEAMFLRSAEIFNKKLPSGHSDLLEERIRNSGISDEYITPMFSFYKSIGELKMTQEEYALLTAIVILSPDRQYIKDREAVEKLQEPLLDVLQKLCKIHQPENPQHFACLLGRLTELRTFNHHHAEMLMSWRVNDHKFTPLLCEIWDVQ
# T1 sequence (P19793 1-462 partner): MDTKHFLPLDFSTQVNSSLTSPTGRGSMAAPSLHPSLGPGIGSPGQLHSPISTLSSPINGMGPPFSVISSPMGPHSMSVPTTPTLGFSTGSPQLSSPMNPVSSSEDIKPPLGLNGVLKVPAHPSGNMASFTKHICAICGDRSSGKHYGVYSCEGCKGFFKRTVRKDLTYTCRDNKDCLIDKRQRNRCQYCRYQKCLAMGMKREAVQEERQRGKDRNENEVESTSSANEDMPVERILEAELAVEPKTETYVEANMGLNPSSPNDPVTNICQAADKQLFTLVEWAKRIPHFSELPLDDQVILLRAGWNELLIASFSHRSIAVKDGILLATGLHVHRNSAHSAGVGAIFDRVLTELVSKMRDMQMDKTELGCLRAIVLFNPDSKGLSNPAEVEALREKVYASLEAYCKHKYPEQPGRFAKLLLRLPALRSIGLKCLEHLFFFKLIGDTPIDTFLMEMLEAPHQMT
# Test: In Vitro FXR Assay (TK): TK-ECRE-luc reporter in transfected CV-1 cells
# Assay type: cell-based
# Conditions: CV-1 cells transfected with hFXR, hRXR, pCMX-YFP, 18 hrs incubation, luminescence
# Protocol: Example B-1: In Vitro FXR Assay (TK)
# CV-1 cells were seeded at a density of 2,000,000 cells in a T175 flask with DMEM+10% charcoal double-stripped FBS and incubated at 37° C. in 5% CO2 for 18 h (O/N).
# After 18 h of incubation, the medium in the T175 flask was changed with fresh DMEM+10% charcoal super-stripped serum. In a polypropylene tube, 2500 μL OptiMEM (Life Technologies, Cat #31985-062) was combined with expression plasmids for hFXR, hRXR, TK-ECRE-luc and pCMX-YFP. The tube was then briefly vortexed and incubated at room temperature for 5 minutes. Transfection reagent (X-tremeGENE HP from Roche, Cat #06 366 236 001) was added to the OptiMEM/plasmid mixture vortexed and incubated at room temperature for 20 minutes. Following incubation, the transfection reagent/DNA mixture complex was added to cells in the T175 flask and the cells were incubated at 37° C. in 5% CO2 for 18 h (O/N).
# Compounds were serially diluted in DMSO and added to transfected CV-1 cells. The cells were then incubated for 18 hrs. The next day cells were lysed and examined for luminescence.
row,SMILES,EC50 [nM]
1,"COc1ccc(C23CCC(CN(c4cc(-c5cnc(C(C)(C)C)s5)ccn4)C(=O)[C@H]4CC[C@H](OC(=O)NCCCO)CC4)(CC2)CC3)cc1C [Compound 2.02, 4-((4-(2-(tert-Butyl)thiazol-5-yl)pyridin-2-yl)((4-(4-methoxy-3-methylphenyl)bicyclo[2.2.2]octan-1-yl)methyl)carbamoyl) (trans-cyclohexyl) (3-hydroxypropyl)carbamate]",≤ 10
2,"COc1ccc(C23CCC(CN(c4cc(-c5cnc(C(C)(C)C)s5)ccn4)C(=O)[C@H]4CC[C@H](OC(=O)NC5COC5)CC4)(CC2)CC3)cc1C [Compound 2.04, 4-((4-(2-(tert-Butyl)thiazol-5-yl)pyridin-2-yl)((4-(4-methoxy-3-methylphenyl)bicyclo[2.2.2]octan-1-yl)methyl)carbamoyl) (trans-cyclohexyl) oxetan-3-ylcarbamate]",≤ 10
3,"COc1ccc(C23CCC(CN(c4cc(-c5cnc(C(C)(C)C)s5)ccn4)C(=O)[C@H]4CC[C@H](OC(=O)NCCC(C)(C)O)CC4)(CC2)CC3)cc1C [Compound 2.08, 4-((4-(2-(tert-Butyl)thiazol-5-yl)pyridin-2-yl)((4-(4-methoxy-3-methylphenyl)bicyclo[2.2.2]octan-1-yl)methyl)carbamoyl) (trans-cyclohexyl) (3-hydroxy-3-methylbutyl)carbamate]",≤ 10
4,"COc1ccc(C23CCC(CN(c4cc(-c5coc(C(C)(C)C)n5)ccn4)C(=O)[C@H]4CC[C@H](OC(=O)N5CC[C@H]5CO)CC4)(CC2)CC3)cc1C [Compound 2.11, (S)-4-((4-(2-(tert-Butyl)oxazol-4-yl)pyridin-2-yl)((4-(4-methoxy-3-methylphenyl)bicyclo[2.2.2]octan-1-yl)methyl)carbamoyl)cyclohexyl 2-(hydroxymethyl)azetidine- trans-1-carboxylate]",≤ 10
5,"COc1ccc(C23CCC(CN(c4cc(-c5coc(C(C)(C)C)n5)ccn4)C(=O)[C@H]4CC[C@H](OC(=O)N5CC(S(C)(=O)=O)C5)CC4)(CC2)CC3)cc1C [Compound 2.13, 4-((4-(2-(tert-Butyl)oxazol-4-yl)pyridin-2-yl)((4-(4-methoxy-3-methylphenyl)bicyclo[2.2.2]octan-1-yl)methyl)carbamoyl) (trans-cyclohexyl) 3-(methylsulfonyl)azetidine-1-carboxylate]",≤ 10
6,"COc1ccc(C23CCC(CN(c4cc(-c5coc(C(C)(C)C)n5)ccn4)C(=O)[C@H]4CC[C@H](OC(=O)N5CC(OCCO)C5)CC4)(CC2)CC3)cc1C [Compound 2.14, 4-((4-(2-(tert-Butyl)oxazol-4-yl)pyridin-2-yl)((4-(4-methoxy-3-methylphenyl)bicyclo[2.2.2]octan-1-yl)methyl)carbamoyl) (trans-cyclohexyl) 3-(2-hydroxyethoxy)azetidine-1-carboxylate]",≤ 10
7,"COc1ccc(C23CCC(CN(c4cc(-c5coc(C(C)(C)C)n5)ccn4)C(=O)[C@H]4CC[C@H](OC(=O)N5CC(CO)C5)CC4)(CC2)CC3)cc1C [Compound 2.15, 4-((4-(2-(tert-Butyl)oxazol-4-yl)pyridin-2-yl)((4-(4-methoxy-3-methylphenyl)bicyclo[2.2.2]octan-1-yl)methyl)carbamoyl) (trans-cyclohexyl) 3-(hydroxymethyl)azetidine-1-carboxylate]",≤ 10

# Next, values leading:
row,EC50 [nM],SMILES
1,≤ 10,"COc1ccc(C23CCC(CN(c4cc(-c5cnc(C(C)(C)C)s5)ccn4)C(=O)[C@H]4CC[C@H](OC(=O)N5CC(C)(O)C5)CC4)(CC2)CC3)cc1C [Compound 2.01, 4-((4-(2-(tert-Butyl)thiazol-5-yl)pyridin-2-yl)((4-(4-methoxy-3-methylphenyl)bicyclo[2.2.2]octan-1-yl)methyl)carbamoyl) (trans-cyclohexyl) 3-hydroxy-3-methylazetidine-1-carboxylate]"
2,≤ 10,"COc1ccc(C23CCC(CN(c4cc(-c5cnc(C(C)(C)C)s5)ccn4)C(=O)[C@H]4CC[C@H](OC(=O)N5CC(S(C)(=O)=O)C5)CC4)(CC2)CC3)cc1C [Compound 2.03, 4-((4-(2-(tert-Butyl)thiazol-5-yl)pyridin-2-yl)((4-(4-methoxy-3-methylphenyl)bicyclo[2.2.2]octan-1-yl)methyl)carbamoyl) (trans-cyclohexyl) 3-(methylsulfonyl)azetidine-1-carboxylate]"
3,≤ 10,"COc1ccc(C23CCC(CN(c4cc(-c5cnc(C(C)(C)C)s5)ccn4)C(=O)[C@H]4CC[C@H](OC(=O)N5CCC(O)CC5)CC4)(CC2)CC3)cc1C [Compound 2.05, 4-((4-(2-(tert-Butyl)thiazol-5-yl)pyridin-2-yl)((4-(4-methoxy-3-methylphenyl)bicyclo[2.2.2]octan-1-yl)methyl)carbamoyl)cyclohexyl 4-hydroxypiperidine- trans-1-carboxylate]"
4,≤ 10,"COc1ccc(C23CCC(CN(c4cc(-c5cnc(C(C)(C)C)s5)ccn4)C(=O)[C@H]4CC[C@H](OC(=O)NCCO)CC4)(CC2)CC3)cc1C [Compound 2.06, 4-((4-(2-(tert-Butyl)thiazol-5-yl)pyridin-2-yl)((4-(4-methoxy-3-methylphenyl)bicyclo[2.2.2]octan-1-yl)methyl)carbamoyl)cyclohexyl (2-hydroxyethyl)trans-carbamate]"
5,≤ 10,"COc1ccc(C23CCC(CN(c4cc(-c5cnc(C(C)(C)C)s5)ccn4)C(=O)[C@H]4CC[C@H](OC(=O)N5CC(OCCO)C5)CC4)(CC2)CC3)cc1C [Compound 2.07, 4-((4-(2-(tert-Butyl)thiazol-5-yl)pyridin-2-yl)((4-(4-methoxy-3-methylphenyl)bicyclo[2.2.2]octan-1-yl)methyl)carbamoyl) (trans-cyclohexyl) 3-(2-hydroxyethoxy)azetidine-1-carboxylate]"
6,10 to 1000,"COc1ccc(C23CCC(CN(c4cc(-c5cnc(C(C)(C)C)s5)ccn4)C(=O)[C@H]4CC[C@H](OC(=O)N5CCC(N(C)C)C5)CC4)(CC2)CC3)cc1C (stereo partly drawn) [Compound 2.09, 4-((4-(2-(tert-Butyl)thiazol-5-yl)pyridin-2-yl)((4-(4-methoxy-3-methylphenyl)bicyclo[2.2.2]octan-1-yl)methyl)carbamoyl)cyclohexyl 3-(dimethylamino)pyrrolidine- trans-1-carboxylate]"
7,≤ 10,"COc1ccc(C23CCC(CN(c4cc(-c5cnc(C(C)(C)C)s5)ccn4)C(=O)[C@H]4CC[C@H](OC(=O)N5CC[C@H]5CO)CC4)(CC2)CC3)cc1C [Compound 2.10, (S)-4-((4-(2-(tert-Butyl)thiazol-5-yl)pyridin-2-yl)((4-(4-methoxy-3-methylphenyl)bicyclo[2.2.2]octan-1-yl)methyl)carbamoyl)cyclohexyl 2-(hydroxymethyl)azetidine- trans-1-carboxylate]"
8,≤ 10,"COc1ccc(C23CCC(CN(c4cc(-c5coc(C(C)(C)C)n5)ccn4)C(=O)[C@H]4CC[C@H](OC(=O)N5CC(C)(O)C5)CC4)(CC2)CC3)cc1C [Compound 2.12, 4-((4-(2-(tert-Butyl)oxazol-4-yl)pyridin-2-yl)((4-(4-methoxy-3-methylphenyl)bicyclo[2.2.2]octan-1-yl)methyl)carbamoyl) (trans-cyclohexyl) 3-hydroxy-3-methylazetidine-1-carboxylate]"
